From DBAASP
In brackets after ≈: the same amount, converted by molar mass.

How the values were obtained:
Test in all cases: ≥ marks a high value that may be exact or a test limit, other limits are often not marked, values filed in µg/mL are converted to µM
Escherichia coli MC1061 = tested on: Escherichia coli MC1061
[1] = tested on: Vibrio harveyi CGMCC 1.1593
Edwardsiella tarda = tested on: Edwardsiella tarda
[2] = tested on: Corynebacterium glutamicum CGMCC 1.1886
[3] = tested on: Vibrio parahaemolyticus CGMCC 1.1615
[4] = tested on: Staphylococcus epidermidis CGMCC 1.2429
[5] = tested on: Vibrio alginolyticus CGMCC 1.1833
[6] = tested on: Aeromonas hydrophila CGMCC 1.0927
[7] = tested on: Candida albicans CGMCC 2.2411
[8] = tested on: Micrococcus luteus CGMCC 1.0634
[9] = tested on: Vibrio fluvialis CGMCC 1.1609
[10] = tested on: Shigella flexneri CGMCC 1.1868
[11] = tested on: Staphylococcus aureus CGMCC 1.363
Aeromonas sobria = tested on: Aeromonas sobria
[12] = tested on: Pseudomonas fluorescens CGMCC 1.0032
[13] = tested on: Bacillus subtilis CGMCC 1.108
[14] = tested on: Micrococcus luteus CGMCC 1.634
Streptococcus sanguinis = tested on: Streptococcus sanguinis
Staphylococcus aureus = tested on: Staphylococcus aureus
[15] = tested on: Enterobacter cloacae CICC 21539
[16] = tested on: Serratia marcescens ATCC 4112
[17] = tested on: Escherichia coli CICC 10293
[18] = tested on: Listeria innocua CICC 10417
[19] = tested on: Staphylococcus aureus CICC 10306
[20] = tested on: Salmonella enterica subsp. enterica serovar Paratyphi B CICC 10437
[21] = tested on: Pseudomonas aeruginosa CICC 21636
[22] = tested on: Staphylococcus aureus CICC 10384
[23] = tested on: Bacillus subtilis CICC 10034
[24] = tested on: Saccharomyces cerevisiae CICC 1002
[25] = tested on: Candida albicans CICC 1965
[26] = tested on: Candida albicans CPCC 400416
[27] = tested on: Escherichia coli CPCC 100521
[28] = tested on: Staphylococcus aureus CPCC 100520
[29] = tested on: Klebsiella pneumoniae ATCC 27736
[30] = tested on: Serratia marcescens ATCC 8100
[31] = tested on: Streptococcus pneumoniae ATCC 49619
[32] = tested on: Stenotrophomonas maltophilia
Streptococcus pyogenes = tested on: Streptococcus pyogenes
Pseudomonas aeruginosa = tested on: Pseudomonas aeruginosa
[33] = tested on: Acinetobacter baumannii ATCC 19606
[34] = tested on: Escherichia coli ATCC 25922
[35] = tested on: Staphylococcus aureus ATCC 29213
[36] = tested on: Burkholderia cepacia ATCC 25416
[37] = tested on: Pseudomonas aeruginosa ATCC 27853
Klebsiella pneumoniae = tested on: Klebsiella pneumoniae
[38] = tested on: Escherichia coli O18:K1:H7
Acinetobacter baumannii = tested on: Acinetobacter baumannii
[39] = tested on: Pseudomonas aeruginosa 547
[40] = tested on: Pseudomonas aeruginosa PA14
Salmonella typhimurium = tested on: Salmonella typhimurium
[41] = tested on: Listeria monocytogenes 10403s
Enterococcus faecium = tested on: Enterococcus faecium

With CC[C@H](C)[C@H](NC(=O)[C@H](CCCN=C(N)N)NC(=O)CNC(=O)[C@@H](NC(=O)[C@@H]1CCCN1C(=O)[C@H](Cc1ccccc1)NC(=O)[C@H](CCC(N)=O)NC(=O)[C@H](CC(C)C)NC(=O)CNC(=O)[C@H](C)NC(=O)[C@H](CCCN=C(N)N)NC(=O)[C@H](C)NC(=O)[C@H](CO)NC(=O)[C@H](CCCN=C(N)N)NC(=O)[C@H](CO)NC(=O)[C@@H](NC(=O)[C@H](C)NC(=O)[C@H](CCCCN)NC(=O)[C@H](C)NC(=O)[C@H](CCCCN)NC(=O)[C@H](C)NC(=O)[C@@H](N)CCCCN)C(C)C)C(C)C)C(=O)N[C@@H](Cc1cnc[nH]1)C(=O)N[C@@H](CCCN=C(N)N)C(=O)N[C@@H](Cc1cnc[nH]1)C(=O)N[C@@H](CC(C)C)C(=O)N[C@@H](CCCCN)C(=O)O [KAKAKAVSRSARAGLQFPVGRIHRHLK] the MIC (Escherichia coli MC1061) was 2.12 µM (≈ 6.33 µg/mL), the MIC [1] was no less than 48 µM and the MIC (Edwardsiella tarda) was no less than 48 µM. The MIC [2] was 1.06 µM (≈ 3.16 µg/mL), the MIC [3] was no less than 48 µM and the MIC [4] was 2.12 µM (≈ 6.33 µg/mL). It also gave an MIC [5] of no less than 48 µM, an MIC [6] of 1.06 µM (≈ 3.16 µg/mL) and an MIC [7] of no less than 33.9 µM. For the same compound, the MIC [8] was 1.06 µM (≈ 3.16 µg/mL), the MIC [9] was no less than 48 µM and the MIC [10] was 1.06 µM (≈ 3.16 µg/mL). The MIC [11] was 2.12 µM (≈ 6.33 µg/mL), the MIC (Aeromonas sobria) was 4.24 µM (≈ 12.7 µg/mL) and the MIC [12] was 1.06 µM (≈ 3.16 µg/mL). The MIC [13] was 2.12 µM (≈ 6.33 µg/mL) and the MIC [14] was 1.06 µM (≈ 3.16 µg/mL).
CC[C@H](C)[C@H](NC(=O)[C@H](Cc1ccccc1)NC(=O)[C@@H](N)CC(C)C)C(=O)N[C@@H](Cc1ccccc1)C(=O)N[C@@H](Cc1ccccc1)C(=O)N[C@@H](Cc1ccccc1)C(N)=O [LFIFFF] was tested, and the MIC (Streptococcus sanguinis) was 4.65 µM (≈ 3.87 µg/mL) and the MIC (Staphylococcus aureus) was 15.4 µM (≈ 12.8 µg/mL).
Compound CC[C@H](C)[C@H](NC(=O)[C@H](CCSC)NC(=O)[C@H](CO)NC(=O)[C@@H](NC(=O)[C@@H](NC(=O)[C@@H](N)CCCCN)C(C)C)[C@@H](C)CC)C(=O)O [KVISMI] has an MIC [15] of 23.2 µM (≈ 16 µg/mL), an MIC [16] of no less than 46.4 µM and an MIC [17] of 11.6 µM (≈ 8 µg/mL). The MIC [18] was 5.8 µM (≈ 4 µg/mL), the MIC [19] was 11.6 µM (≈ 8 µg/mL) and the MIC [20] was no less than 46.4 µM. The MIC [21] was 23.2 µM (≈ 16 µg/mL), the MIC [22] was 11.6 µM (≈ 8 µg/mL) and the MIC [23] was no less than 46.4 µM. The MIC [24] was no less than 46.4 µM and the MIC [25] was no less than 46.4 µM.
In the case of CC[C@H](C)[C@H](NC(=O)CN)C(=O)NCC(=O)N[C@@H](CO)C(=O)N[C@@H](C)C(=O)N[C@H](C(=O)N[C@@H](CC(C)C)C(=O)N[C@@H](CO)C(=O)N[C@@H](C)C(=O)NCC(=O)N[C@@H](CCCCN)C(=O)N[C@@H](CO)C(=O)N[C@H](C(=O)N[C@H](C(=O)N[C@@H](CCCCN)C(=O)NCC(=O)N[C@@H](CC(C)C)C(=O)N[C@@H](C)C(=O)N[C@@H](CCCCN)C(=O)NCC(=O)N[C@@H](CC(C)C)C(=O)N[C@@H](C)C(=O)N[C@@H](CCC(=O)O)C(=O)N[C@@H](Cc1cnc[nH]1)C(=O)N[C@@H](Cc1ccccc1)C(N)=O)[C@@H](C)CC)[C@@H](C)CC)[C@@H](C)CC [GIGSAILSAGKSIIKGLAKGLAEHF], the MIC [26] is reported as no less than 52.5 µM, the MIC [27] is reported as 26.2 µM (≈ 64 µg/mL) and the MIC [28] is reported as 26.2 µM (≈ 64 µg/mL).
CSCC[C@@H](NC(=O)[C@@H](Cc1c[nH]c2ccccc12)NC(=O)CNC(=O)CNC(=O)[C@@H](CCCN=C(N)N)NC(=O)[C@@H](CCCN=C(N)N)NC(=O)[C@@H](CCCN=C(N)N)NC(=O)[C@@H](CCC(N)=O)NC(=O)[C@@H](CCCN=C(N)N)NC(=O)[C@@H](CCCN=C(N)N)NC(=O)[C@@H](CCCCN)NC(=O)[C@@H](CCCCN)NC(=O)[C@@H](CCCN=C(N)N)NC(=O)CN)C(=O)N[C@H](Cc1c[nH]c2ccccc12)C(=O)N[C@@H](C(=O)N[C@@H](C(=O)N[C@H](CC(N)=O)C(=O)N[C@H](CC(C)C)C(=O)N[C@H](CCCN=C(N)N)C(=O)N[C@@H](C(=O)N[C@H](CC(=O)O)C(=O)O)[C@H](C)O)[C@H](C)O)C(C)C [GRKKRRQRRRGGWMWVTNLRTD] showed an MIC [29] of no less than 91 µM, an MIC [30] of no less than 91 µM and an MIC [31] of 22.7 µM (≈ 64 µg/mL). For the same compound, the MIC [32] was 5.69 µM (≈ 16 µg/mL), the MIC (Streptococcus pyogenes) was 2.84 µM (≈ 8 µg/mL) and the MIC (Pseudomonas aeruginosa) was greater than 45.5 µM. It also gave an MIC [33] of 2.84 µM (≈ 8 µg/mL), an MIC [34] of 11.4 µM (≈ 32 µg/mL) and an MIC [35] of 45.5 µM (≈ 128 µg/mL). It also gave an MIC [36] of no less than 91 µM, an MIC [37] of 22.7 µM (≈ 64 µg/mL) and an MIC (Klebsiella pneumoniae) greater than 91 µM. For the same compound, the MIC [38] was 22.7 µM (≈ 64 µg/mL), the MIC (Acinetobacter baumannii) was 5.69 µM (≈ 16 µg/mL) and the MIC [39] was no less than 45.5 µM. The MIC [40] was 11.4 µM (≈ 32 µg/mL), the MIC (Salmonella typhimurium) was 22.7 µM (≈ 64 µg/mL) and the MIC [41] was no less than 45.5 µM. For the same compound, the MIC (Staphylococcus aureus) was 45.5 µM (≈ 128 µg/mL) and the MIC (Enterococcus faecium) was 22.7 µM (≈ 64 µg/mL).
